Measurements published in paper PMC3475186 (Cell, 2012).

Molecular target: hTPC2 (TPC2; TPCN2; hTPC2-EGFP) (Homo sapiens, UniProt Q8NHX9)
Experiment: whole-endolysosome patch clamp
Type: cell-based

Chain of hTPC2 (TPC2; TPCN2; hTPC2-EGFP) (Q8NHX9 whole entry): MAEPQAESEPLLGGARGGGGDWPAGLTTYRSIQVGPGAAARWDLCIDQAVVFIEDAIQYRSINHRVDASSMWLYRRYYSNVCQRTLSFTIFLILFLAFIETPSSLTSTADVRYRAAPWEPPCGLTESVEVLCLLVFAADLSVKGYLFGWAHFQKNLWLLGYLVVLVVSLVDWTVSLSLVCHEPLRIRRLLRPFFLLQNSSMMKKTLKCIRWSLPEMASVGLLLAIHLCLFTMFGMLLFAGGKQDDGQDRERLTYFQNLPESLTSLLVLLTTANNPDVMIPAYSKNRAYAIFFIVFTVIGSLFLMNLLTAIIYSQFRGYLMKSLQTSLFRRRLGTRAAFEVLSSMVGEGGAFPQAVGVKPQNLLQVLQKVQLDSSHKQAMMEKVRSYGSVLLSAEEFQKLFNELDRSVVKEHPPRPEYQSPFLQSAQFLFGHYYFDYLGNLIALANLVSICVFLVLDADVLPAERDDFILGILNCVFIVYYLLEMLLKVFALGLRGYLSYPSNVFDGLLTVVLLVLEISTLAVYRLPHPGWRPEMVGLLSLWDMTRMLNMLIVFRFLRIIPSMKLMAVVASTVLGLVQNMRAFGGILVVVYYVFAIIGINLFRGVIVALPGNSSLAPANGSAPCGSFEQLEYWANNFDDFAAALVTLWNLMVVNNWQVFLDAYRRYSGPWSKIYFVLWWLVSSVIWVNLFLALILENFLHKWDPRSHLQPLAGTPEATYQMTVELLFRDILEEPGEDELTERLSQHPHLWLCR

EC50: 390 ± 94 nM
SMILES: CCCCCCCC(=O)OC[C@H](COP(=O)(O)O[C@@H]1[C@H](O)[C@H](OP(=O)(O)O)[C@@H](O)[C@H](OP(=O)(O)O)[C@H]1O)OC(=O)CCCCCCC [diC8 PI(3,5)P2]
